From patent publication US20070155771A1, “Methods and means for treating protein conformational disorders” (priority 2003, published 2007)

Assays:
[1] = system: COS-7 cells expressing an exon 1 fragment of the HD gene with 74 glutamines (Q74); assay: Aggregate formation and abnormal cell nuclei in transiently transfected COS-7 cells expressing Q74; assay type: cell-based, African green monkey; settings: 48 hours after transfection
From the text: (§1) Mammalian expression vectors comprising EGFP (pEGFP-C1, Clontech) fused at its C-terminus with a Huntington's Disease gene exon 1 fragment with 74 polyglutamine repeats (Q74) or a polyalanine stretch of 19 repeats (A19) were used (Rankin, J. et al (2000) Biochem. J., 348, 15-19; Narain, Y. et al (1999) J. Med. Genet., 36, 739-746.). A Haemagglutinin-tagged Huntington's Disease gene exon 1 fragment with 74 polyglutamine repeats in pHM6 vector (Q74-HA) was also used. The PC12 stable lines expressing exon 1 of Huntington gene were as described in Wyttenbach A. et al., (2001) Hum. Mol. Genet. 10 1829-45.
(§2) African green monkey kidney cells (COS-7) were grown in Dulbecco's Modified Eagle Medium (DMEM, Sigma) supplemented with 10% Fetal Bovine Serum (FBS), 100 U/ml Penicillin/Streptomycin, 2 mM L-Glutamine and 1 mM Sodium Pyruvate at 37° C., 5% Carbon dioxide. The cells were grown on coverslips in six-well plates for immunofluorescence analysis, or were directly grown in six-well plates to 60-80% confluency for 24 hours for western blot analysis. Transfection was done using LipofectAMINE reagent (Invitrogen) using the manufacturer's protocol. The transfection mixture was replaced by normal culture medium after 5 hours incubation at 37° C. and the transfected cells were analysed by immunofluorescence or immunoblot 48 hours after transfection. The cells were left untreated or treated with 10 mM 3-methyl adenine (3-MA, Sigma), 0.5 mM N^6, N^6, Dimethyl adenosine (DMA, Sigma), 0.2 μg/ml Rapamycin (Sigma), 200 nM Bafilomycin A1 (BafA1, Sigma), 10 μM Lactacystin (Sigma) or 10 μM epoxomicin (Affinity research products ltd.) for 15 hours before fixation for immunofluorescence or processing for western blots. DMA, BafA1, epoxomicin and rapamycin were dissolved in DMSO and 3-MA and lactacystin were in water. Equal amounts of water or DMSO were added to the untreated controls, where relevant. The cells on coverslips were rinsed with 1×PBS, fixed with 4% paraformaldehyde in 1×PBS for 20 min and mounted in antifadent supplemented with 4′,6-diamidino-2-phenylindole (DAPI, 3 μg/ml, Sigma) to allow visualisation of nuclear morphology. The PC12 stable cells were maintained at 75 μg/ml hygromycin in standard medium consisting of high glucose DMEM (Sigma) with 100 U/ml penicillin/streptomycin, 2 mM L-glutamine (Invitrogen), 10% heat-inactivated horse serum (Invitrogen), 5% Tet-approved fetal bovine serum (FBS) (Clontech) and 100 μg/ml G418 (Invitrogen) at 37° C., 10% CO2. The cells were seeded at 1-2×10^5 per well in 6-well plates and were induced with 1 μg/ml doxycycline (Sigma) for 8 hours. The expression of transgenes was switched off by removing doxycycline from the medium. Cells were either left untreated or treated with 3-MA, BafA1, epoxomicin, lactacystin, rapamycin, 10 μg/ml cycloheximide (Sigma) or cycloheximide+rapamycin at the concentrations specified above for 24, 48 or 72 hours and the medium with the inhibitors/activator changed every 24 hours. The cells were then scraped off from the wells into 1.5 ml eppendorf tubes, pelleted at 8000 rpm and washed twice with 1×PBS. They were either fixed with 4% paraformaldehyde for 20 minutes and mounted in DAPI over coverslips on glass slides or processed for western blot analysis. CCI-779 was supplied by Wyeth Pharmaceuticals (Philadelphia). For tissue culture experiments, a stock solution of 1M in ethanol was prepared the day of experiment and was diluted in the appropriate medium
(§3) The pellets for westerns from COS-7 or PC12 cells were lysed on ice in Laemmli buffer (62.5 mM Tris-HCl pH6.8, 5% β-mercaptoethanol, 10% glycerol, and 0.01% bromophenol blue) for 30 min in the presence of protease inhibitors (Roche Diagnostics). The lysates were subjected to SDS-PAGE (10%) electrophoresis and proteins transferred onto nitrocellulose membrane (Amersham Pharmacia Biotech). […]

[2] = system: COS-7 cells expressing EGFP fused to 19 alanines (A19); assay: Aggregate formation and abnormal cell nuclei in transiently transfected COS-7 cells expressing A19; assay type: cell-based, African green monkey; settings: immunofluorescence; 48 hours after transfection; drug 15 hours
From the text: as §1, §2, §3

[3] = system: PC12 cell line expressing EGFP-tagged HD exon 1 with Q74; assay: Turnover of Q74 protein and aggregates in stable doxycycline-inducible PC12 cells after switching expression off; assay type: cell-based, rat
Experimental: as §2
The pellets for westerns from COS-7 or PC12 cells were lysed on ice in Laemmli buffer (62.5 mM Tris-HCl pH6.8, 5% β-mercaptoethanol, 10% glycerol, and 0.01% bromophenol blue) for 30 min in the presence of protease inhibitors (Roche Diagnostics). The lysates were subjected to SDS-PAGE (10%) electrophoresis and proteins transferred onto nitrocellulose membrane (Amersham Pharmacia Biotech). The primary antibodies used include mouse monoclonal anti-GFP antibody (8362-1, Clontech) at 1:2000, rabbit monoclonal anti-actin antibody (A2066, Sigma) at 1:3000, mouse monoclonal anti-tubulin antibody (Clone DM 1A, Sigma) at 1:1000 and mouse monoclonal anti-HA antibody (Covance) at 1:1000. Blots were probed with Horse Radish Peroxidase (HRP) conjugated anti-mouse or anti-rabbit IgG (Bio Rad) at 1:2000. Bands were visualised using the ECL detection reagent (Amersham). […]

[4] = system: human wild-type, A30P and A53T α-synuclein; assay: α-Synuclein degradation in inducible PC12 cell lines (western blot), all forms; assay type: cell-based
From the text: Human α-synuclein with a HA tag at the N-terminus and a 6His tag at the C-terminus was amplified from pHM6α-synuclein constructs (Furlong, R. A. et a; 1 (2000) Biochem. J. 346, 577581) and inserted into pTRE2 hyg vector (Clontech) using Nhe I/Sal I sites. Constructs were confirmed by sequencing before use. The pTRE2 hygα-synuclein construct and pTettTS (Clontech) were cotransfected into PC12 TetOn cells (Clontech), using Lipofectamine (Invitrogen) and Plus Reagent (Invitrogen). Single colonies were isolated using cloning cylinders (Sigma) and cells were grown and tested for α-synuclein expression upon induction. Cell lines were subjected to a further round of purification from single colonies to ensure that lines were pure.
PC12 cells were grown in Dulbecco's modified eagle's medium (DMEM, Sigma) supplemented with 10% horse serum (Sigma), 5% fetal bovine serum (Sigma), 100 U/ml penicillin/streptomycin, 2 mM L-glutamine, […] G418 (Invitrogen) and […] hygromycin B (Calbiochem) at 37° C., 10% CO2. To induce differentiation, cells were grown in media containing 1% horse serum and 100 ng/ml nerve growth factor (2.5S, Upstate Biotechnology) and incubated for about 5 days. Cells were induced to express synuclein with […] doxycycline (Sigma).
Cells were induced for 24 hours and then washed twice with media to remove doxycycline. Then cells were incubated in […] media containing either 10 mM 3-methyladenine (3MA, Sigma), 200 nM bafilomycin A1 (Sigma), […] rapamycin (Sigma), […] lactacystin (Sigma), […] epoxomicin (Affinity Research Products Ltd) or carrier controls (water or DMSO (Sigma)). 3MA and lactacystin were made up in water and rapamycin, epoxomicin and bafilomycin were dissolved in DMSO.
After 24 hours the media was replaced with fresh media plus drug and after a further 24 hours cell pellets were collected and stored at −80° C. until required.
Cell pellets were collected and stored at −80° C. until needed. Cells were lysed on ice in lysis buffer: 1% TritonX100, 20 mM TRIS pH7.5, 137 mM NaCl, 1 mM EGTA, 10% glycerol, 1.5 mM MgCl2 and protease inhibitor cocktail (Complete, Roche).
Samples were then mixed with loading buffer: 62.5 mM TRIS pH 6.8, 2% SDS, 10% glycerol, 0.05% bromophenol blue, 100 mM dithiothreitol and 700 mM β-mercaptoethanol and boiled before loading onto 14% denaturing polyacrylamide gels.
Each lane was loaded with protein from a similar number of cells, based on cell counting at the time of seeding. Proteins were transferred onto Hybond ECL nitrocellulose membrane (Amersham). α-Synuclein was detected with an antiHA monoclonal antibody (Covance) at 1:1000 dilution with 4-18 hours incubation. HRP conjugated antimouse antibody (Amersham) at 1:2000 dilution was then added to blots and antibody was detected using ECL blotting reagents (Amersham) and Hyperfilm ECL (Amersham). Blots were stripped and then reprobed for α-tubulin (Sigma) at 1:1000 dilution.
PC12 cell lines as described above (i.e. mitotic and neuronally differentiated wild-type, A53T and A30P PC12 lines) were induced for 24 hours, then doxycycline was removed and the drugs were added for 48 hours. The trends we observed were similar in cells treated with drugs for 24 and 72 hours.

CN(C)c1ncnc2c1ncn2[C@@H]1O[C@H](CO)[C@@H](O)[C@H]1O [DMA, N^6,N^6-dimethyladenosine]
appearance (size, number) of Q74 aggregates in cells with aggregates ([1]; immunofluorescence, drug 15 hours): Identical aggregate phenotypes | appearance (size, number) of A19 aggregates in cells with aggregates [2]: Identical aggregate phenotypes

C[C@@H]1C[C@@H]([C@H](O)CC2CC(=O)NC(=O)C2)C(=O)[C@@H](C)C1 [cycloheximide]
cell fluorescence (EGFP-Q74 clearance) ([3]; 8 h ON then 72 h OFF with drug, 0.2 μg/ml rapamycin, 10 μg/ml cycloheximide): increased | numbers of aggregate containing cells / visible aggregates ([3]; 8 h ON then 72 h OFF with drug, vs time-matched control): increased

CC(=O)N[C@@H](CSC(=O)[C@]1([C@@H](O)C(C)C)NC(=O)[C@H](C)[C@@H]1O)C(=O)O [lactacystin]
cell death or overt aggregate formation [4]: did not cause increased cell death or overt aggregate formation | α-synuclein levels ([4]; induced 24 hours, doxycycline removed, drug 48 hours, cycling and differentiated cells, 0.2 mg/ml rapamycin, 10 mM lactacystin, 10 mM epoxomicin [sic]): increase | proportions of Q74-expressing cells with aggregates ([1]; drug for 15 hours before fixing: 10 mM 3-MA, 0.5 mM DMA, 200 nM BafA1, 0.2 μg/ml rapamycin, 10 μM epoxomicin, 10 μM lactacystin, vs untreated): increases | number of aggregate-containing cells ([3]; 8 h ON then 48 h OFF with 10 μM epoxomicin or 10 μM lactacystin, vs control): increased Q74 aggregation
